In PubChem BioAssay (NCI):
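Each compound was tested at five concentrations against cells in 96-well plates for 48 hours. The concentration for full growth arrest is given as TGI.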

Assays:
Assay in all cases: growth of human tumour cells (NCI), 48 h
[1] = system: 786-0 renal
[2] = system: A498 renal
[3] = system: A549 NSCLC
[4] = system: ACHN renal
[5] = system: BT-549 breast
[6] = system: CAKI-1 renal
[7] = system: COLO 205 colon
[8] = system: DU-145 prostate
[9] = system: EKVX NSCLC
[10] = system: HCC-2998 colon
[11] = system: HCT-116 colon
[12] = system: HCT-15 colon
[13] = system: HL-60(TB) leukemia
[14] = system: HOP-62 NSCLC
[15] = system: HOP-92 NSCLC
[16] = system: HS 578T breast
[17] = system: HT29 colon
[18] = system: K-562 leukemia
[19] = system: KM12 colon
[20] = system: LOX IMVI melanoma
[21] = system: M14 melanoma
[22] = system: MALME-3M melanoma
[23] = system: MCF7 breast
[24] = system: MDA-MB-231 breast
[25] = system: MDA-MB-435
[26] = system: MDA-N
[27] = system: MOLT-4 leukemia
[28] = system: NCI-H226 lung
[29] = system: NCI-H23 lung
[30] = system: NCI-H460 lung
[31] = system: NCI-H522 lung
[32] = system: NCI/ADR-RES ovarian
[33] = system: OVCAR-3 ovarian
[34] = system: OVCAR-4 ovarian
[35] = system: OVCAR-5 ovarian
[36] = system: OVCAR-8 ovarian
[37] = system: RPMI-8226 leukemia
[38] = system: RXF 393 renal
[39] = system: SF-268 CNS
[40] = system: SF-295 CNS
[41] = system: SF-539 CNS
[42] = system: SK-MEL-2 melanoma
[43] = system: SK-MEL-28 melanoma
[44] = system: SK-MEL-5 melanoma
[45] = system: SK-OV-3 ovarian
[46] = system: SN12C renal
[47] = system: SNB-19 CNS
[48] = system: SR leukemia
[49] = system: SW-620 colon
[50] = system: T-47D breast
[51] = system: TK-10 renal
[52] = system: U251 CNS
[53] = system: UACC-257 melanoma
[54] = system: UACC-62 melanoma
[55] = system: UO-31 renal
[56] = system: CCRF-CEM leukemia
[57] = system: IGROV1 ovarian
[58] = system: PC-3 prostate

## COc1cc(/C=C2/SC(c3ccccc3)N(c3ccc(NC(C)=O)cc3)C2=O)cc(OC)c1OC (stereo unspecified)
[1]
  TGI: > 100 µM
[2]
  TGI: > 100 µM
[3]
  TGI: > 100 µM
[4]
  TGI: > 100 µM
[5]
  TGI: > 100 µM
[6]
  TGI: > 100 µM
[7]
  TGI: > 100 µM
[8]
  TGI: > 100 µM
[9]
  TGI: > 100 µM
[10]
  TGI: > 100 µM
[11]
  TGI: > 100 µM
[12]
  TGI: > 100 µM
[13]
  TGI: > 100 µM
[14]
  TGI: > 100 µM
[15]
  TGI: > 100 µM
[16]
  TGI: > 100 µM
[17]
  TGI: > 100 µM
[18]
  TGI: > 100 µM
[19]
  TGI: > 100 µM
[20]
  TGI: > 100 µM
[21]
  TGI: > 100 µM
[22]
  TGI: > 100 µM
[23]
  TGI: > 100 µM
[24]
  TGI: > 100 µM
[25]
  TGI: > 100 µM
[26]
  TGI: > 100 µM
[27]
  TGI: > 100 µM
[28]
  TGI: > 100 µM
[29]
  TGI: > 100 µM
[30]
  TGI: > 100 µM
[31]
  TGI: > 100 µM
[32]
  TGI: > 100 µM
[33]
  TGI: > 100 µM
[34]
  TGI: > 100 µM
[35]
  TGI: > 100 µM
[36]
  TGI: > 100 µM
[37]
  TGI: > 100 µM
[38]
  TGI: > 100 µM
[39]
  TGI: > 100 µM
[40]
  TGI: > 100 µM
[41]
  TGI: > 100 µM
[42]
  TGI: > 100 µM
[43]
  TGI: > 100 µM
[44]
  TGI: > 100 µM
[45]
  TGI: > 100 µM
[46]
  TGI: > 100 µM
[47]
  TGI: > 100 µM
[48]
  TGI: > 100 µM
[49]
  TGI: > 100 µM
[50]
  TGI: > 100 µM
[51]
  TGI: > 100 µM
[52]
  TGI: > 100 µM
[53]
  TGI: > 100 µM
[54]
  TGI: > 100 µM
[55]
  TGI: > 100 µM

## Clc1ccc(-c2ccc(-c3nnc(CCc4nnc(-c5ccc(-c6ccc(Cl)cc6)o5)o4)o3)o2)cc1
[1]
  TGI: > 100 µM
[2]
  TGI: > 92.2 µM
[3]
  TGI: > 100 µM
[4]
  TGI: > 100 µM
[5]
  TGI: > 100 µM
[6]
  TGI: > 100 µM
[56]
  TGI: 16.9 µM
[7]
  TGI: > 100 µM
[8]
  TGI: > 100 µM
[9]
  TGI: > 100 µM
[10]
  TGI: > 100 µM
[11]
  TGI: > 100 µM
[12]
  TGI: > 100 µM
[14]
  TGI: > 100 µM
[15]
  TGI: > 64.1 µM
[16]
  TGI: 86 µM
[17]
  TGI: > 100 µM
[57]
  TGI: > 100 µM
[18]
  TGI: > 61.2 µM
[19]
  TGI: > 100 µM
[20]
  TGI: > 100 µM
[21]
  TGI: > 100 µM
[23]
  TGI: > 100 µM
[24]
  TGI: > 100 µM
[25]
  TGI: > 100 µM
[26]
  TGI: > 100 µM
[27]
  TGI: > 45.3 µM
[28]
  TGI: > 100 µM
[29]
  TGI: > 100 µM
[30]
  TGI: > 100 µM
[31]
  TGI: > 100 µM
[32]
  TGI: > 100 µM
[33]
  TGI: > 100 µM
[34]
  TGI: > 100 µM
[35]
  TGI: > 100 µM
[36]
  TGI: > 100 µM
[58]
  TGI: > 100 µM
[37]
  TGI: > 100 µM
[38]
  TGI: > 56 µM
[39]
  TGI: > 100 µM
[40]
  TGI: > 100 µM
[41]
  TGI: > 100 µM
[42]
  TGI: > 100 µM
[43]
  TGI: > 100 µM
[44]
  TGI: > 100 µM
[45]
  TGI: > 90.4 µM
[46]
  TGI: > 100 µM
[47]
  TGI: > 100 µM
[48]
  TGI: 5.5 µM
[49]
  TGI: > 100 µM
[50]
  TGI: > 100 µM
[51]
  TGI: > 86 µM
[52]
  TGI: > 100 µM
[53]
  TGI: > 100 µM
[54]
  TGI: > 100 µM
[55]
  TGI: > 100 µM
